Measurements: PubChem BioAssay AID790 (SRMLSC, 2007)
Calls of active or inactive are those of the source. No rule for the calls is given here.

What was measured:
[1] = test system: S. cerevisiae vps1Δ mutant growth inhibition; experiment: growth inhibition of yeast vps1Δ mutant, dose response, S. cerevisiae, background strain comparison (AID 790)
[2] = as above; settings: S. cerevisiae vps1Δ mutant growth inhibition; measured here: background strain growth inhibition

Structure (SMILES) | IC50 [1] | IC50 [2] [µM]
Cc1cc([N+](=O)[O-])c(-c2ccc(/C=N/n3cnnc3)o2)cc1Cl | 0.115 µM | 0.134
CSc1ncccc1C(=O)OCC(=O)N1CCOCC1 | > 10 µM (inactive) | > 10
Cc1ccc(C2(C(F)(F)F)N=C3Sc4cc(C)cc(C)c4N3C(=O)N2)cc1 (stereo not given) | 1.37 µM (inactive) | 1.08
CCCCCCCCNc1ncnc2ccccc12 | > 10 µM (inactive) | 14.8
CCOc1ccc(-c2[nH]ncc2Oc2ccccc2OCC)c(O)c1 | 23.7 µM (inactive) | 16
CCOc1cccc(C(=O)Nc2cccnc2)c1 | > 10 µM (inactive) | > 10
Cc1ccc(C2N(c3ccc(Cl)c(Cl)c3)C(=O)C3CCCN32)o1 (stereo not given) | > 10 µM (inactive) | > 10
Nc1ccc(Oc2ccc3nc(-c4ccccc4)c(-c4ccccc4)nc3c2)cc1 | 2.91 µM (inactive) | 1.21
Cc1cccc(-c2nnc(-c3cccc(NC(=O)Cc4cccs4)c3)o2)c1 | > 10 µM (inactive) | 15.2
CC(=O)NC1C(c2nc3ccccc3s2)=C(c2ccccc2)C(=O)N1c1ccc(C)cc1 (stereo not given) | 2.18 µM (inactive) | 1.92
COc1cccc(OCCCCN2CC(C)OC(C)C2)c1 (stereo not given) | > 10 µM (inactive) | > 10
COc1ccc2oc(=O)c(-c3nnc(NCc4ccco4)s3)cc2c1 | > 10 µM (inactive) | > 10
N=c1nc(N)nc2n1NC(c1ccc(F)cc1)=CS2 | > 10 µM (inactive) | > 10
CCOc1cc(/C=C\[N+](=O)[O-])ccc1OCC(=O)Nc1ccccc1C | 25.4 µM | > 10
CCOC(=O)c1cccnc1SCc1cc(=O)n2ccccc2n1 | > 10 µM (inactive) | > 10
COCCNc1cc(C)nc2c3c(C)cc(C)nc3nn12 | > 10 µM (inactive) | > 10
Cc1cc(C)nc(N/N=C/C(Cl)=C/c2ccccc2)n1 | > 10 µM (inactive) | > 10
COc1ccc(C2=NC(C(F)(F)F)(C(F)(F)F)c3c(n(C)c(=O)n(C)c3=O)N2)cc1 | > 10 µM (inactive) | > 10
CCCCS(=O)(=O)/C=C\C=C/S(=O)(=O)CCCC | 12.1 µM | 13.9
COCCCn1c2nc3ccccc3nc2c2c(=O)n(-c3ccccc3OC)cnc21 | > 10 µM (inactive) | > 10
Cc1ccc(S(=O)(=O)NC(CC(C)C)C(=O)Oc2ccc3c4c(c(=O)oc3c2)CCC4)cc1 (stereo not given) | > 10 µM (inactive) | > 10
O=S(=O)(c1ccc(Cl)cc1)N1CCN(C2CCN(Cc3ccccc3)CC2)CC1 | > 10 µM (inactive) | > 10
Fc1ccc(-c2noc(C3CCN(Cc4cccnc4)CC3)n2)cc1 | > 10 µM (inactive) | > 10
Cc1ccc(S(=O)(=O)c2c(C)nn(C(C)(C)C)c2OC(=O)c2ccc(Br)o2)cc1 | > 10 µM (inactive) | > 10
COc1ccccc1N1CCN(CC(O)c2ccc3cc[nH]c3c2)CC1 (stereo not given) | > 10 µM (inactive) | > 10

Structure (SMILES) | IC50 [1] | IC50 [2] [µM]
Cc1cccc(-c2c3c(=O)n(C)c(=O)n(C)c3cn2C2CCCCC2)c1 | > 10 µM (inactive) | > 10
COc1cc2[nH]c(=S)n(CCCN3CCOCC3)c(=O)c2cc1OC | > 10 µM (inactive) | > 10
CCCOc1ccccc1N/C(=N/c1nc(C)cc(C)n1)NC(=O)COc1ccc(OC)cc1 | > 10 µM (inactive) | > 10
Clc1ccc(Cn2nnc(-c3ccc(CN4CCOCC4)cc3)n2)cc1 | > 10 µM (inactive) | > 10
Nc1cc(N)c(OCC(F)(F)F)cc1OCC(F)(F)F | > 10 µM (inactive) | > 10
C=C(C)COc1ccc(-c2ncncc2Oc2ccc(OC)cc2)c(O)c1 | > 10 µM (inactive) | > 10
O=C(Nc1cccc(Cl)c1)N1CCN(C/C=C/c2ccccc2)CC1 | > 10 µM (inactive) | > 10
COC(=O)c1ccc(NC(=O)c2cn(-c3ccccc3)nc2-c2ccncc2)cc1 | > 10 µM (inactive) | > 10
N#CC1=C(N)NC(SCc2ccc(F)cc2)=C(C#N)C12CCCCC2 | 2.12 µM | 16.3
CCN1C(=O)c2ccc(C(=O)NCc3ccccc3)cc2C1=O | > 10 µM (inactive) | > 10
c1coc(CNc2nc(N3CCCCC3)nc3ccccc23)c1 | > 10 µM (inactive) | > 10
CCOC(=O)C1=C(N)N2C(=O)C(C)SC2=C(C(=O)OC)C1c1ccccc1OC (stereo not given) | > 10 µM (inactive) | 0.163
O=C(COc1ccc(Cl)cc1Cl)NCCCN1CCOCC1 | > 10 µM (inactive) | > 10
COc1cccc(C(=O)N2CCN(C3CCC(c4ccccc4)CC3)CC2)c1OC (stereo not given) | 23.3 µM | 23.9
Cc1cc(N2C(=O)C3CCCN3C2c2sccc2C)no1 (stereo not given) | > 10 µM (inactive) | > 10
Cc1nnc(-c2cccc(Br)c2)c2cn(-c3ccccc3Cl)nc12 | 2.01 µM | 25.9
CC(C)COC(=O)c1ccc2c(c1O)C(=O)c1ccccc1C2=O | 22.9 µM | > 10
CC(C)Cc1[nH]c(=O)c(C#N)c2c1CCC2 | > 10 µM (inactive) | > 10
COc1ccc(CN(C(=O)Cc2cccs2)C(C(=O)NC2CCCC2)c2ccncc2)cc1 (stereo not given) | > 10 µM (inactive) | > 10
COCCNC(=O)C(c1ccc(F)cc1)N(CC1CCCO1)C(=O)CCC(=O)Nc1ccccn1 (stereo not given) | > 10 µM (inactive) | > 10
O=C1OCC2=C1C(c1ccc(F)cc1)Sc1ccccc1N2 (stereo not given) | 14.4 µM | > 10
CCCn1c(SCc2cc(=O)oc3ccc4ccccc4c23)n[nH]c1=O | > 10 µM (inactive) | > 10
CCCCOc1ccc(-c2ncc(C(=O)O)c(C)n2)cc1 | > 10 µM (inactive) | > 10
O=C1CC(N2CCN(c3ccc(Cl)c(Cl)c3)CC2)C(=O)N1 (stereo not given) | 15.3 µM | > 10
O=C(NCc1ccc2c(c1)OCO2)c1ccc(CS(=O)(=O)c2cccc(C(F)(F)F)c2)o1 | > 10 µM (inactive) | > 10
